According to patent US12612403B2, “Nitrogen-containing heterocyclic derivative inhibitor, and preparation method therefor and use thereof” (SHANGHAI HANSOH BIOMEDICAL CO., LTD., priority 2024, dated 2026):
pIC50: −log10 of the molar value.

Columns and labels:
[1] = tested on: hyperlipidemia animal model of B6-hPCSK9 transgenic mice; experiment: In vivo pharmacodynamic study in hyperlipidemia model of B6-hPCSK9 transgenic mice (LDL-C, TC, plasma PCSK9); design: species or system B6-hPCSK9 transgenic C57 mice; details: PO administration, Day 14, B6-hPCSK9 transgenic mice on high-fat feed, normalized to vehicle group
Procedure: 1. Experimental objective: The compounds of the present disclosure were evaluated for in vivo pharmacodynamics in a hyperlipidemia animal model of B6-hPCSK9 transgenic mice.
2.1 Animals: B6-hPCSK9 transgenic C57 mice, 6-8 weeks old, male, purchased from Jiangsu GemPharmatech Co., Ltd.
2.2 Animal model: After delivery to a barrier system, the animals were given one week for acclimatization and began to feed on the high-fat feed. The body weight and feed weight were weighed once a week, and the body weight and food intake thereof were recorded.
2.3 Grouping and administration • a. The animals were grouped by a random grouping method. • c. According to the grouping results, administration with the test drug was started (mode of administration: oral administration; administration volume: 10 mL/kg; frequency of administration: once/day or single administration; administration cycle: 21 days; vehicle: 10% Solutol HS 15/90% Saline). Test drug: Compounds of the present disclosure, made in house. • d. After the test drug was administered, the body weight and feed weight were weighed twice a week and blood was taken once a week. • e. The data was processed with software such as Excel. […] PCSK9 in plasma was detected by ELISA.

[2] = Pharmacokinetic determination in mice (PO 5 mg/kg, IV 1 mg/kg); assay type: in vivo, C57BL/6J mice; details: male, C57BL/6J, mouse, plasma, C57 mice, PO administration, 5 mpk; for AUC(0-inf): read-out: Area under the curve AUC0-∞; for half-life: read-out: Half-life t1/2 (converted); for MRT: read-out: Mean residence time MRT; for Cmax: read-out: Plasma concentration Cmax; for Tmax: read-out: Time to peak tmax
In short: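 Fasted male C57BL/6J mice (n=3 per route) dosed PO 5 mg/kg in 10% Solutol HS15 or IV 1 mg/kg in 5% DMSO/10% Solutol HS15/85% PBS. Orbital blood sampled 0.083 (IV) to 24 h; plasma measured by LC-MS/MS, parameters by WinNonlin.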

[3] = tested on: PCSK9 secreted by HepG2 cells; experiment: Effect on the concentration of PCSK9 secreted by HepG2 cells (ELISA); assay type: cell-based; details: Homo sapiens, 48 hours, PCSK9 in culture medium by ELISA
In short: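 HepG2 cells treated with compound for 48 h at 37° C., 5% CO2. Secreted PCSK9 in medium quantified by sandwich ELISA (HRP detection, OD 450 nm) against a 0–10 ng/mL standard curve. Inhibition relative to control; IC50 fitted from concentration–inhibition data.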

[4] = target: T1, PCSK9 protein (Homo sapiens, UniProt Q8NBP7); experiment: Binding ability to PCSK9 protein (HTRF); details: PCSK9-His, Alexa Fluor 647 probe compound
T1 construct: purchased Sino biology (Sino Biological) 29698-H08H
Procedure: 1. Experimental objective: To detect the action of compounds to bind PCSK9 protein by an HTRF method.
3. Experimental data processing method: Four-parameter log(inhibitor) vs. response—Variable slope (four parameters) in XLit was used to perform non-linear fitting of the compound concentration and the corresponding inhibition rate, and IC50 was calculated.

T1 sequence (Q8NBP7 153-692): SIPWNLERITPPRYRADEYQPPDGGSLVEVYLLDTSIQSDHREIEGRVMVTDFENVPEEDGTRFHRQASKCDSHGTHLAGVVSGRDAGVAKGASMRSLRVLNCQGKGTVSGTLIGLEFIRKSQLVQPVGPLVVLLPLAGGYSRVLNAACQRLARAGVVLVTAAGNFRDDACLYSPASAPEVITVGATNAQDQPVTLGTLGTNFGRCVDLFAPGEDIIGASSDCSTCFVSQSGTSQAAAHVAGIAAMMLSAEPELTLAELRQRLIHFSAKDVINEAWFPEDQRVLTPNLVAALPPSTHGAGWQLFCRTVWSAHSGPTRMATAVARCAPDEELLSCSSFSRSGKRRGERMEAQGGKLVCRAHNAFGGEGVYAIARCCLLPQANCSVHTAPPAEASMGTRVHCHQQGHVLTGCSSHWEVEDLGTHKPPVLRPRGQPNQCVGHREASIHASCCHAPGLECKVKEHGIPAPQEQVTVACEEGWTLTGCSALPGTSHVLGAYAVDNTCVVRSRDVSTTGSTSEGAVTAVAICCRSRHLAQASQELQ

**Q.** With `O=c1ccccn1-c1ccc(N[C@H]2CC[C@H](Nc3nc4cc(F)ccn4n3)C2)nc1` [compound 1, 6′-(((1S,3S)-3-((7-fluoro-[1,2,4]triazolo[1,5-a]pyridin-2-yl)amino)cyclopentyl)amino)-2H-[1,3′-bipyridine]-2-one, reference compound] as the compound, how does the “LDL-C change vs vehicle (%), Day 14” value ([1]; 6 mpk) read?
**A.** −31.52%

**Q.** Which “LDL-C change vs vehicle (%), Day 14” value ([1]; 10 mpk) does the source give for `O=C1c2ccnn2CCN1c1cnc(N[C@H]2CC[C@H](Nc3nc4cc(F)ccn4n3)C2)c(F)c1` [Example 201] here?
**A.** −31.45%

**Q.** With `O=C1c2ncccc2CN1c1cnc(N[C@H]2CC[C@H](Nc3nc4cc(C(F)(F)F)ccn4n3)C2)c(F)c1` [Example 112, 6-(5-fluoro-6-(((1S,3S)-3-((7-(trifluoromethyl)-[1,2,4]triazolo[1,5-a]pyridin-2-yl)amino)cyclopentyl)amino)pyridin-3-yl)-5,6-dihydro-7H-pyrrolo[3,4-b]pyridin-7-one] as the compound, how does the AUC(0-inf) [2] read?
**A.** 33800 ng·h/mL

**Q.** What about the half-life [2] of the same compound?
**A.** 2.2 h

**Q.** What about the MRT [2] of the same compound?
**A.** 4.7 h

**Q.** What about the Cmax [2] of the same compound?
**A.** 5070 ng/mL

**Q.** And the Tmax [2]?
**A.** 1 h

**Q.** And the pIC50 [3]?
**A.** 5.16

**Q.** What about the pIC50 [4] of the same compound?
**A.** 8.08

**Q.** And the “LDL-C change vs vehicle (%), Day 14” value ([1]; 10 mpk)?
**A.** −38.14%

**Q.** With `O=C1c2ccnn2CCN1c1cnc(N[C@H]2CC[C@H](Nc3nc4cc(C(F)(F)F)ccn4n3)C2)c(F)c1` [Example 212] as the compound, how does the “LDL-C change vs vehicle (%), Day 14” value ([1]; 10 mpk) read?
**A.** −60.08%

**Q.** Which AUC(0-inf) [2] does the source give for `O=C1c2ncc(F)cc2CN1c1cnc(N[C@H]2CC[C@H](Nc3nc4cc(OC(F)F)ccn4n3)C2)c(F)c1` [Example 154] here?
**A.** 13300 ng·h/mL

**Q.** What about the half-life [2] of the same compound?
**A.** 2.5 h

**Q.** And the MRT [2]?
**A.** 3.7 h

**Q.** And the Cmax [2]?
**A.** 2640 ng/mL

**Q.** And the Tmax [2]?
**A.** 1 h

**Q.** And the pIC50 [3]?
**A.** 5.26

**Q.** And the “LDL-C change vs vehicle (%), Day 14” value ([1]; 10 mpk)?
**A.** −35.66%

**Q.** What does the source list for `O=C1c2cccnc2CN1c1ccc(N[C@H]2CC[C@H](Nc3nc4cc(C(F)(F)F)ccn4n3)C2)nc1` [Example 12, 6-(6-(((1S,3S)-3-((7-(trifluoromethyl)-[1,2,4]triazolo[1,5-a]pyridin-2-yl)amino)cyclopentyl)amino)pyridin-3-yl)-6,7-dihydro-5H-pyrrolo[3,4-b]pyridin-5-one]?
**A.** AUC(0-inf) [2]: 9510 ng·h/mL; half-life [2]: 2.9 h; MRT [2]: 2.8 h; Cmax [2]: 4310 ng/mL; Tmax [2]: 0.25 h; LDL-C change vs vehicle (%), Day 14 ([1]; 10 mpk): −33.75%
